Legend:
Experiment in all cases: relative viability (nuclei count vs DMSO), 5 days (fraction); higher = more cells survive
MK-2206 + Tozasertib = compound: NC1(c2ccc(-c3nc4ccn5c(=O)[nH]nc5c4cc3-c3ccccc3)cc2)CCC1 [MK-2206] + Cc1cc(Nc2cc(N3CCN(C)CC3)nc(Sc3ccc(NC(=O)C4CC4)cc3)n2)n[nH]1 [Tozasertib] (partner 0.1 µM)
Outline: (§1)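 Cells from lung cancer lines were seeded into 1536-well plates and, one day later, dosed by pin tool. Treatments were either a single drug or a fixed dose of an anchor drug with five library-drug doses (not always all listed) in √10 steps. After 5 days, nuclei were stained in a one-step fixation (final 0.05% Triton X-100, 1% formaldehyde, 1 ug/ml Hoechst) and counted on 4× images, and relative viability is the treated-to-vehicle nuclei ratio, as the median of duplicate plates.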

MK-2206 + Pictilisib = compound: NC1(c2ccc(-c3nc4ccn5c(=O)[nH]nc5c4cc3-c3ccccc3)cc2)CCC1 [MK-2206] + CS(=O)(=O)N1CCN(Cc2cc3nc(-c4cccc5[nH]ncc45)nc(N4CCOCC4)c3s2)CC1 [Pictilisib] (partner 1 µM)
Outline: as §1

Pictilisib + Lapatinib = compound: CS(=O)(=O)N1CCN(Cc2cc3nc(-c4cccc5[nH]ncc45)nc(N4CCOCC4)c3s2)CC1 [Pictilisib] + CS(=O)(=O)CCNCc1ccc(-c2ccc3ncnc(Nc4ccc(OCc5cccc(F)c5)c(Cl)c4)c3c2)o1 [Lapatinib] (partner 2 µM)
Outline: as §1

Pictilisib + Olaparib = compound: CS(=O)(=O)N1CCN(Cc2cc3nc(-c4cccc5[nH]ncc45)nc(N4CCOCC4)c3s2)CC1 [Pictilisib] + O=C(c1cc(Cc2n[nH]c(=O)c3ccccc23)ccc1F)N1CCN(C(=O)C2CC2)CC1 [Olaparib] (partner 8 µM)
Outline: as §1

Pictilisib + Tozasertib = compound: CS(=O)(=O)N1CCN(Cc2cc3nc(-c4cccc5[nH]ncc45)nc(N4CCOCC4)c3s2)CC1 [Pictilisib] + Cc1cc(Nc2cc(N3CCN(C)CC3)nc(Sc3ccc(NC(=O)C4CC4)cc3)n2)n[nH]1 [Tozasertib] (partner 0.1 µM)
Outline: as §1

Row | Cell Line | relative viability (MK-2206 + Tozasertib; first compound 0.01 µM) | relative viability (MK-2206 + Tozasertib; first compound 0.03162 µM) | relative viability (MK-2206 + Tozasertib; first compound 0.3162 µM) | relative viability (MK-2206 + Tozasertib; first compound 1 µM) | relative viability (MK-2206 + Pictilisib; first compound 0.01 µM) | relative viability (MK-2206 + Pictilisib; first compound 0.03162 µM) | relative viability (MK-2206 + Pictilisib; first compound 0.3162 µM) | relative viability (MK-2206 + Pictilisib; first compound 1 µM) | relative viability (Pictilisib + Lapatinib; first compound 0.02 µM) | relative viability (Pictilisib + Lapatinib; first compound 0.06325 µM) | relative viability (Pictilisib + Lapatinib; first compound 0.6325 µM) | relative viability (Pictilisib + Lapatinib; first compound 2 µM) | relative viability (Pictilisib + Olaparib; first compound 0.02 µM) | relative viability (Pictilisib + Olaparib; first compound 0.06325 µM) | relative viability (Pictilisib + Olaparib; first compound 0.6325 µM) | relative viability (Pictilisib + Olaparib; first compound 2 µM) | relative viability (Pictilisib + Tozasertib; first compound 0.02 µM) | relative viability (Pictilisib + Tozasertib; first compound 0.06325 µM) | relative viability (Pictilisib + Tozasertib; first compound 0.6325 µM) | relative viability (Pictilisib + Tozasertib; first compound 2 µM)
1 | NCI-H2023 | 0.345 | 0.347 | 0.239 | 0.197 | 0.231 | 0.197 | 0.206 | 0.191 | 0.78 | 0.611 | 0.349 | 0.243 | 0.521 | 0.451 | 0.354 | 0.134 | 0.416 | 0.403 | 0.197 | 0.0836
2 | Calu-6 | – | – | – | – | 0.93 | 0.895 | 0.86 | 0.873 | 1.15 | 1.19 | 0.898 | 0.911 | 0.656 | 0.554 | 0.589 | 0.519 | – | – | – | –
3 | SW 900 | 0.561 | 0.531 | 0.569 | 0.698 | – | – | – | – | – | – | – | – | 0.793 | 0.818 | 0.713 | 0.471 | 0.651 | 0.63 | 0.562 | 0.334
4 | HOP-62 | 0.381 | 0.39 | 0.391 | 0.322 | 0.563 | 1.11 | 0.728 | 0.48 | 1.15 | 1.44 | 0.931 | 0.742 | 0.389 | 0.556 | 0.512 | 0.446 | 0.319 | 0.415 | 0.369 | 0.304
5 | H3255 | 0.773 | 0.663 | 0.511 | 0.703 | 0.477 | 0.45 | 0.399 | 0.384 | 0.237 | 0.222 | 0.153 | 0.124 | 0.585 | 0.599 | 0.472 | 0.412 | 0.601 | 0.474 | 0.648 | 0.486
6 | NCI-H1734 | 0.28 | 0.244 | 0.261 | 0.252 | 0.475 | 0.463 | 0.329 | 0.393 | 1.1 | 1.11 | 0.653 | 0.41 | 0.582 | 0.581 | 0.477 | 0.215 | 0.254 | 0.275 | 0.226 | 0.193
7 | SK-MES-1 | 0.813 | 0.847 | 0.885 | 0.794 | 0.37 | 0.34 | 0.354 | 0.352 | 0.468 | 0.41 | 0.389 | 0.27 | 0.881 | 0.654 | 0.474 | 0.296 | 1 | 0.982 | 0.822 | 0.649
8 | NCI-H1792 | – | – | – | – | 0.27 | 0.271 | 0.251 | 0.283 | 0.923 | 0.928 | 0.809 | 0.387 | 0.386 | 0.294 | 0.261 | 0.0715 | – | – | – | –
9 | EKVX | 0.405 | 0.395 | 0.344 | 0.329 | 0.415 | 0.447 | 0.424 | 0.445 | 0.212 | 0.215 | 0.186 | 0.136 | 0.962 | 0.828 | 0.777 | 0.406 | 0.369 | 0.324 | 0.317 | 0.215

From the supplement of paper PMC10307832
